The record followed here is patent US20220177466A1, “DEGRADERS OF KELCH-LIKE ECH-ASSOCIATED PROTEIN 1 (KEAP1)” (DANA-FARBER CANCER INSTITUTE, INC., priority 2019, published 2022).

What all share (type): cell-based
Test [1] deals with T1, KEAP1 (Homo sapiens, UniProt Q14145).
T1 construct: endogenous in cells; host or cells: MM.1S cells
Kind of test: Rescue of degrader-induced KEAP1 degradation by pretreatment in MM.1S cells, immunoblot. The note with it: pretreatment 2 h (10 μM DGY-03-118, 10 μM Lenalidomide, 0.5 μM Bortezomib, 1 μM MLN4924); for rescue of the KEAP1 degradation induced by compound 1: then 5 μM compound 1 for 2 h, FIG. 4A; for rescue of the KEAP1 degradation induced by compound 4: then 5 μM compound 4 for 2 h, FIG. 4B. The procedure: (§1) MM.1S cells were treated with 0, 0.1 μM, 1 μM, or 10 μM of compound 1 or compound 4 or 0.25 μM THAL-SNS-032 (a known CDK9 degrader, as a positive control for CDK9 degradation) for 16 hours. Cells were then lysed in RIPA buffer (Sigma) containing protease/phosphatase inhibitor cocktail (Roche). The protein concentrations were measured by bicinchoninic acid assay (BCA) analysis (Pierce™). Equal amounts of protein were resolved by 4-12% Tris-Base gels (Invitrogen), and then transferred to the Immuno-Blot polyvinylidene difluoride (PVDF) membrane (BioRad), and immunoblotted with primary antibodies against KEAP1 (cell signaling), CRBN (cell signaling), CDK9 (cell signaling) and R-Actin (cell signaling), and then immunoblotted with IRDye® 800-labeled goat anti-rabbit IgG and IRDye®800-labeled goat anti-mouse IgG (LI-COR) secondary antibodies. The membranes were detected on Odyssey CLx system.
MM.1S cells were pretreated with 10 μM DGY-03-118 (the parental compound and known KEAP1 inhibitor), 10 μM Lenalidomide (CRBN ligand), 0.5 μM Bortezomib (a proteasome inhibitor) and 1 μM MLN4924 (a neddylation inhibitor) for 2 h, and then treated with 5 μM compound 1 for 2 h. Cells were lysed and immunoblotted as described above with antibodies to KEAP1 and β-Actin.
MM.1S cells were pretreated with 10 μM DGY-03-118 (the parental compound and known KEAP1 inhibitor), 10 μM Lenalidomide (CRBN ligand), 0.5 μM Bortezomib (a proteasome inhibitor) and 1 μM MLN4924 (a neddylation inhibitor) for 2 h, and then treated with 5 μM compound 4 for 2 h. Cells were lysed and immunoblotted as described above with antibodies to KEAP1 and β-Actin.
(Immunoblotting shows a protein as a band on a membrane.)

The next test has as its target T2, IKZF3 (Homo sapiens, UniProt Q9UKT9).
T2 construct: endogenous in cells; host or cells: MM.1S cells
Kind of test: Off-target degradation in MM.1S cells, immunoblot: IKZF3. The note with it: 5 μM, up to 6 h, FIG. 2. The protocol: as §1
(§2) MM.1S cells were treated with 0 or 5 μM compound 1 or compound 4 for 0, 2, 4, or 6 h. Cells were lysed and immunoblotted as described above with antibodies to KEAP1 (cell signaling), CRBN (cell signaling), IKZF1 (cell signaling), IKZF3 (cell signaling), GSPT1 (abcam) and R-Actin (cell signaling).

The target of test [2] is T1, KEAP1. Kind of test: Knockdown of KEAP1 in MM.1S cells, immunoblot, concentration series, 16 h. The note with it: 0.1 μM, 1 μM or 10 μM, FIG. 1. The procedure:
as §1

In test [3] the target is T1, KEAP1. Kind of test: KEAP1 levels after washout in MM.1S cells, immunoblot. The note with it: 5 μM for 2 h, washout at 2, 4, 7 and 24 hours, FIG. 5A/5B. The protocol: as §1
MM.1S cells were treated with 0 or 5 μM compound 1 for 2 h, followed by washout at 2, 4, 7, and 24 hours. Cells were lysed and immunoblotted as described above with antibodies to KEAP1 and β-Actin.
MM.1S cells were treated with 0 or 5 μM compound 4 for 2 h, followed by washout at 2, 4, 7, and 24 hours. Cells were lysed and immunoblotted as described above with antibodies to KEAP1 and β-Actin.

The target in another test is T3, GSPT1 (Homo sapiens, UniProt P15170).
T3 construct: endogenous in cells; host or cells: MM.1S cells
T3 sequence (Q96SW2 whole entry partner): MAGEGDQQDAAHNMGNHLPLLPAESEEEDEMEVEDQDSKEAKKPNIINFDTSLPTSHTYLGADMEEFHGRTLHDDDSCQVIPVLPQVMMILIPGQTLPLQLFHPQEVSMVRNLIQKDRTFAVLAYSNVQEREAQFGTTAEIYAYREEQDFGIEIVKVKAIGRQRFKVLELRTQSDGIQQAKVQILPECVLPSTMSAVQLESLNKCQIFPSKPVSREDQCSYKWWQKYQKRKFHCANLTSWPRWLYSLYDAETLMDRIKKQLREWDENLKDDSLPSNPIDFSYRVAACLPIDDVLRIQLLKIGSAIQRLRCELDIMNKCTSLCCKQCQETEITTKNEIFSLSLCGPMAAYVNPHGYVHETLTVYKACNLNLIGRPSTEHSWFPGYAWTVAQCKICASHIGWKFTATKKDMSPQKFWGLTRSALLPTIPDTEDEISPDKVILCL
T3 sequence (Q16531 whole entry partner): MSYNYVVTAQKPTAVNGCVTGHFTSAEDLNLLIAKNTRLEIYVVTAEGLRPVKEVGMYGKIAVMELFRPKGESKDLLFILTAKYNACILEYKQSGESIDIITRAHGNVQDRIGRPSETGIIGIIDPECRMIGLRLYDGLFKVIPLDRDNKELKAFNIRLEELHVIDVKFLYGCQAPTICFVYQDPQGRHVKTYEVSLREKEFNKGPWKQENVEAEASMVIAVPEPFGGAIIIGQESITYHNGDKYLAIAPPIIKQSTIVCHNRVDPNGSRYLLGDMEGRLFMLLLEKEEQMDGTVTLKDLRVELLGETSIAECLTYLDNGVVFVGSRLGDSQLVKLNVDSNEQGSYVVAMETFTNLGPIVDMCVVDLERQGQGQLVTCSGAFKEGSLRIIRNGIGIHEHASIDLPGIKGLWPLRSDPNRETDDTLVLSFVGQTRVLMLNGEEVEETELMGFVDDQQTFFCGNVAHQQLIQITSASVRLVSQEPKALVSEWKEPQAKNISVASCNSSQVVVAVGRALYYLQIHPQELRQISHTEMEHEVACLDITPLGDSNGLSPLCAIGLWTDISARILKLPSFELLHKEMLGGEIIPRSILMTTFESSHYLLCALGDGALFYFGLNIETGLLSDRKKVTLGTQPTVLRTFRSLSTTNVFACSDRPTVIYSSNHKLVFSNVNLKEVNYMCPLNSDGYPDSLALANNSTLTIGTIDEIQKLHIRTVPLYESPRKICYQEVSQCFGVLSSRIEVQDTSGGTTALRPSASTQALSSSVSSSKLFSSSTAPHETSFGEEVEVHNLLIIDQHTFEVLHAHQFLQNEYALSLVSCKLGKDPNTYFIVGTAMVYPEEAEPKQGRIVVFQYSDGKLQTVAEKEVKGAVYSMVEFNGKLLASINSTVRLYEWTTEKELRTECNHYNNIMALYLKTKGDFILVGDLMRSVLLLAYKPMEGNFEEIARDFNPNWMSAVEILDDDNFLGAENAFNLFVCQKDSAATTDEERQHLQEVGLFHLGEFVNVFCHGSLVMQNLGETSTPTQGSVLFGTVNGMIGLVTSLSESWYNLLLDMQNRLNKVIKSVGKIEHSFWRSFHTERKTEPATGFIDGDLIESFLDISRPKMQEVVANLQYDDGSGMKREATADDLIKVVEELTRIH
T3 sequence (P15170 whole entry): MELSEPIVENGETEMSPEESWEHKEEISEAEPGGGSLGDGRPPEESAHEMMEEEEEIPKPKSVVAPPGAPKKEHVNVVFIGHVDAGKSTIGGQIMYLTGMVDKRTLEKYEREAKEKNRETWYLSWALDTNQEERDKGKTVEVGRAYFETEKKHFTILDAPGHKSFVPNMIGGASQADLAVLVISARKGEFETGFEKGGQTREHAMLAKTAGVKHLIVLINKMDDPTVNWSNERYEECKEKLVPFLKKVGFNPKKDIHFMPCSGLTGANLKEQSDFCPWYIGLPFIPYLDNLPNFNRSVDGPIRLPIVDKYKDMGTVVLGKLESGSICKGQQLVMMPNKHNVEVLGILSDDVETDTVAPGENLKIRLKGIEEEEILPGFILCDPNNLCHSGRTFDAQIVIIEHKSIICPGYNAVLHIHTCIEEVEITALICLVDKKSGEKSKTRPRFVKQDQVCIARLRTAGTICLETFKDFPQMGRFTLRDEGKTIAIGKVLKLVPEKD
The test can be described thus: Off-target degradation in MM.1S cells, immunoblot: GSPT1. The note with it: 5 μM, up to 6 h, FIG. 2. The procedure:
as §1, §2

In test [4] the target is T1, KEAP1. Kind of test: KEAP1 degradation in CRBN−/− MM.1S cells, immunoblot. The conditions noted are these: 5 μM, 0, 2, 4 or 6 h, FIG. 3. The protocol: as §1
(§3) Wild-type (WT) (left panel) or CRBN−/− (right panel) MM.1 S cells were treated with 0 or 5 μM compound 1 or compound 4 for 0, 2, 4, or 6 h. Cells were lysed and immunoblotted as described above with antibodies to KEAP1 (cell signaling) and R-Actin (cell signaling).

Another test has as its target T4, IKZF1 (Homo sapiens, UniProt Q13422).
T4 construct: endogenous in cells; host or cells: MM.1S cells
Kind of test: Off-target degradation in MM.1S cells, immunoblot: IKZF1. The conditions noted are these: 5 μM, up to 6 h, FIG. 2. The protocol:
as §1, §2

Test [5] has as its target T1, KEAP1. The test can be described thus: KEAP1 degradation in wild-type (WT) MM.1S cells, immunoblot. The conditions noted are these: 5 μM, 0, 2, 4 or 6 h, FIG. 3. The protocol: as §1, §3
A further test concerns the target T5, CDK9 (Homo sapiens, UniProt P50750+Q96SW2).
T5 construct: endogenous in cells; host or cells: MM.1S cells
Kind of test: CDK9 degradation in MM.1S cells, immunoblot (positive control). The conditions noted are these: 0.25 μM, 16 hours, FIG. 1. The procedure: as §1

T1 sequence (Q14145 whole entry): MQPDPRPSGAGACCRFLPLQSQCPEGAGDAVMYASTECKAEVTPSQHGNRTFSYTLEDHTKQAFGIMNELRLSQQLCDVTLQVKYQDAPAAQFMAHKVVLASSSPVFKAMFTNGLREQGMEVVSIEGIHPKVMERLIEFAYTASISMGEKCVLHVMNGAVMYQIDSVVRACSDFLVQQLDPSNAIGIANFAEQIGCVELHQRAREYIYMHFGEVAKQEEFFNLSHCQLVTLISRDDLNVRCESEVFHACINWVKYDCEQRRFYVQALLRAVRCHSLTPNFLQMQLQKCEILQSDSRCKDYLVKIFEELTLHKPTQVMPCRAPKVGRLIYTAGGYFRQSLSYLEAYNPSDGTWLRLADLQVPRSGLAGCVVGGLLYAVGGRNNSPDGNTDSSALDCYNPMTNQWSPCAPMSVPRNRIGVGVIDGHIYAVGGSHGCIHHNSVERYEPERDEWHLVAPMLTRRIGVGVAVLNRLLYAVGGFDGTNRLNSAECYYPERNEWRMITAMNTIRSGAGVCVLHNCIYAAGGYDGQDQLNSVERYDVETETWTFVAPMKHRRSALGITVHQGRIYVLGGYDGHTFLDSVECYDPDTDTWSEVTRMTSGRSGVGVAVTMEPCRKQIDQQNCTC
T2 sequence (Q96SW2 whole entry partner): as the sequence (Q96SW2 whole entry partner) above
T2 sequence (Q16531 whole entry partner): as the sequence (Q16531 whole entry partner) above
T2 sequence (Q9UKT9 whole entry): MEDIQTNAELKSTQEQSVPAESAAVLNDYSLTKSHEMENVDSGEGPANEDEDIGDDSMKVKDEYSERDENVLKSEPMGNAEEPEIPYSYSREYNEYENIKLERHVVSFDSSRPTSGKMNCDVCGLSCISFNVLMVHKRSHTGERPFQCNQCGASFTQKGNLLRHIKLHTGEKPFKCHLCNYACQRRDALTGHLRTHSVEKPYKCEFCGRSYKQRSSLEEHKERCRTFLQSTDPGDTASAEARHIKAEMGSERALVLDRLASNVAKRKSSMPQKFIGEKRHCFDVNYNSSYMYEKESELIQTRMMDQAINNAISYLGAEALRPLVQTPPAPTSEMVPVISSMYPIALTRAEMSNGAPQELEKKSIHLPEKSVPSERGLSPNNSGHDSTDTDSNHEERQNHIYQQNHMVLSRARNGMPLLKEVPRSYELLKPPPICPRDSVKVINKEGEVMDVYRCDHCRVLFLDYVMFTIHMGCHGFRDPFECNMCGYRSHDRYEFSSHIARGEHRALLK
T4 sequence (Q96SW2 whole entry partner): as the sequence (Q96SW2 whole entry partner) above
T4 sequence (Q16531 whole entry partner): as the sequence (Q16531 whole entry partner) above
T4 sequence (Q13422 whole entry): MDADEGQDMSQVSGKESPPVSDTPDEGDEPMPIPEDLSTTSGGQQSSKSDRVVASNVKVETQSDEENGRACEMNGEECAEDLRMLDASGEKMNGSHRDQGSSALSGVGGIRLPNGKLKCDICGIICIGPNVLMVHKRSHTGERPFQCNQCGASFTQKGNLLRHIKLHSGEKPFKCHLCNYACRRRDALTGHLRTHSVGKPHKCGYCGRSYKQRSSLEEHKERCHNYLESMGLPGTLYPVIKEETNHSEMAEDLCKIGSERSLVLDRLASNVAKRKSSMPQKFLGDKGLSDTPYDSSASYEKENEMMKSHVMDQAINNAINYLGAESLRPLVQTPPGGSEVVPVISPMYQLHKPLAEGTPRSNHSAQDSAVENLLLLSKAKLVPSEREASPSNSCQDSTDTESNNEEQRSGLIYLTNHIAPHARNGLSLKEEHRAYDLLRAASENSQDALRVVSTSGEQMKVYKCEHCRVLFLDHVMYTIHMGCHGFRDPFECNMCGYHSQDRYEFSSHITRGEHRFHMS

Consider `Nc1cccc2c1CN(C1CCC(=O)NC1=O)C2=O` (stereo not drawn) [Lenalidomide], for which, at KEAP1 [1], the “rescue of the KEAP1 degradation induced by compound 1” value (“rescue … by compound 1” below) is given as “rescued the KEAP1 degradation” and the “rescue of the KEAP1 degradation induced by compound 4” value (“rescue … by compound 4” below) is “rescued the KEAP1 degradation”.

With `CC(C)C[C@H](NC(=O)[C@H](Cc1ccccc1)NC(=O)c1cnccn1)B(O)O` [Bortezomib], at KEAP1 [1], the “rescue … by compound 1” value is on record as “rescued the KEAP1 degradation” and the “rescue … by compound 4” value is “rescued the KEAP1 degradation”.

On to `COc1cc(C(CC(=O)O)c2ccc(C)c(CN3C[C@@H](C)Oc4cc(CCCCCCNC(=O)COc5cc6c7c(cccc7c5)C(=O)N(C5CCC(=O)NC5=O)C6=O)ccc4S3(=O)=O)c2)cc2nnn(C)c12` (stereo partly drawn) [compound 4, 3-(3-(((4R)-7-(6-(2-((2-(2,6-dioxopiperidin-3-yl)-1,3-dioxo-2,3-dihydro-1H-benzo[de]isoquinolin-5-yl)oxy)acetamido)hexyl)-4-methyl-1,1-dioxido-3,4-dihydro-2H-benzo[b][1,4,5]oxathiazepin-2-yl)methyl)-4-methylphenyl)-3-(7-methoxy-1-methyl-1H-benzo[d][1,2,3]triazol-5-yl)propanoic Acid], for which, on IKZF3, the “degradation of potential off target IKZF3” value is given as “did not induce the degradation”. Besides, the “degradation of KEAP1” value on KEAP1 [2] is “induced the degradation of KEAP1”. In addition, the “KEAP1 levels after washout relative to vehicle-treated cells” value on KEAP1 [3] was “remained below levels in vehicle-treated cells even 24 h after washout”. Besides, the “degradation of potential off target GSPT1” value at GSPT1 was “did not induce the degradation”. Further, at KEAP1 [4], the “KEAP1 degradation in CRBN−/− MM.1S cells” value is “did not induce KEAP1 degradation”. Moreover, at IKZF1, the “degradation of potential off target IKZF1” value is “did not induce the degradation”. Besides, the “KEAP1 degradation in WT MM.1S cells” value on KEAP1 [5] is listed as “induced KEAP1 degradation”.

Consider `CC(C)(C)c1cnc(CSc2cnc(NC(=O)C3CCN(CC(=O)NCCOCCOCCOCCNc4cccc5c4C(=O)N(C4CCC(=O)NC4=O)C5=O)CC3)s2)o1` (stereo not drawn) [THAL-SNS-032], for which the CDK9 degradation result on CDK9 is recorded as “induced CDK9 degradation”.

Consider `COc1cc(C(CC(=O)O)c2ccc(C)c(CN3C[C@@H](C)Oc4cc(CCCCCCNC(=O)COc5cccc6c5C(=O)N(C5CCC(=O)NC5=O)C6=O)ccc4S3(=O)=O)c2)cc2nnn(C)c12` (stereo partly drawn) [compound 1, 3-(3-(((4R)-7-(6-(2-((2-(2,6-dioxopiperidin-3-yl)-1,3-dioxoisoindolin-4-yl)oxy)acetamido)hexyl)-4-methyl-1,1-dioxido-3,4-dihydro-2H-benzo[b][1,4,5]oxathiazepin-2-yl)methyl)-4-methylphenyl)-3-(7-methoxy-1-methyl-1H-benzo[d][1,2,3]triazol-5-yl)propanoic Acid], for which the “degradation of potential off target IKZF3” value at IKZF3 is “did not induce the degradation”. The “degradation of KEAP1” value on KEAP1 [2] is given as “induced the degradation of KEAP1”. Further, the “KEAP1 levels after washout relative to vehicle-treated cells” value on KEAP1 [3] is listed as “remained below levels in vehicle-treated cells 4 h after washout”. Besides, the “degradation of potential off target GSPT1” value at GSPT1 is listed as “did not induce the degradation”. For the same molecule, the “KEAP1 degradation in CRBN−/− MM.1S cells” value at KEAP1 [4] was “did not induce KEAP1 degradation”. Also, the “degradation of potential off target IKZF1” value at IKZF1 is “did not induce the degradation”. Moreover, on KEAP1 [5], the “KEAP1 degradation in WT MM.1S cells” value is recorded as “induced KEAP1 degradation”.

As for `NS(=O)(=O)OC[C@@H]1C[C@@H](n2ccc3c(N[C@H]4CCc5ccccc54)ncnc32)C[C@@H]1O` [MLN4924], on KEAP1 [1], the “rescue … by compound 1” value is given as “rescued the KEAP1 degradation” and the “rescue … by compound 4” value was “rescued the KEAP1 degradation”.
